Among the data in ChEMBL document CHEMBL1208733, “Benzylisoquinoline alkaloids from the tubers of Corydalis ternata and their cytotoxicity” (Bioorg Med Chem Lett, 2010) are IC50 values, retold here.

What all share (type): functional, cell-based
In test [1] the test system is HCT-15. The test can be described thus: Cytotoxicity against human HCT15 cells by SRB assay.
Test [2] deals with SK-OV-3. The test can be described thus: Cytotoxicity against human SKOV3 cells by SRB assay.
The subject of test [3] is SK-MEL-2. The test can be described thus: Cytotoxicity against human SK-MEL-2 cells by SRB assay.
Test [4] has as its system A549. Description: Cytotoxicity against human A549 cells by SRB assay.

On to `COc1cc2c(cc1O)C1Cc3ccc4c(c3CN1CC2)OCO4` (stereo not given) [CHEILANTHIFOLINE], for which the half-inhibitory concentration (IC50) amounted to 29.8 µM in test [1], 27.4 µM in test [2], 22.2 µM in test [3] and 20.6 µM in test [4].

As for `CN1CCc2cc3c(cc2[C@@H]1Cc1ccc2c(c1C(=O)O)OCO2)OCO3`, the IC50 in test [1] is 27.8 µM; in test [2], > 30 µM; in test [3] it was > 30 µM; in test [4], > 30 µM.

As to `COc1ccc(C[C@@H]2c3cc(O)c(OC)cc3CCN2C)cc1O` [(R)-RETICULINE], the IC50 in test [1] was 26.8 µM; in test [2], > 30 µM; in test [3] it was > 30 µM; in test [4], > 30 µM.

Turning to `COc1ccc2c(c1OC)CN1CCc3cc4c(cc3C1C2)OCO4` (stereo not given) [TETRAHYDROBERBERINE], the concentration for half-maximal inhibition (IC50) was > 30 µM in test [1], > 30 µM in test [2], 27.9 µM in test [3] and > 30 µM in test [4].

As to `COc1cc2c(cc1OC)C1Cc3ccc(O)c(O)c3CN1CC2` (stereo not given) [DEMETHYLCORYDALMINE], the IC50 in test [1] came out at 2.86 µM; in test [2], 5.14 µM; in test [3] it was 7.87 µM; in test [4] it was 8.34 µM.

`COc1ccc(C[C@@H]2NCCc3cc4c(cc32)OCO4)c(C(=O)O)c1OC` [CORYTERNATINE B]: the IC50 in test [1] is 24.6 µM; in test [2], > 30 µM; in test [3], > 30 µM; in test [4] it was > 30 µM.

Turning to `O=C(O)c1c(C[C@@H]2NCCc3cc4c(cc32)OCO4)ccc2c1OCO2` [CORYTERNATINE A], the IC50 is 23.3 µM in test [1], > 30 µM in test [2], > 30 µM in test [3] and > 30 µM in test [4].

`COc1ccc(C[C@H]2c3cc(O)c(OC)cc3CCN2C)cc1O` [(S)-RETICULINE]: the IC50 in test [1] is 29.4 µM; in test [2], > 30 µM; in test [3] it was > 30 µM; in test [4], > 30 µM.

With `COc1c(O)ccc2cc3[n+](cc12)CCc1cc2c(cc1-3)OCO2` [THALIFENDINE], the IC50 in test [1] was > 30 µM; in test [2], > 30 µM; in test [3], 25.7 µM; in test [4] it was 28.3 µM.

As for `COc1ccc2cc3[n+](cc2c1OC)CCc1cc2c(cc1-3)OCO2` [BERBERINE CHLORIDE], the IC50 in test [1] came out at 16.6 µM; in test [2], 16.4 µM; in test [3], 13.8 µM; in test [4] it was 6.27 µM.

With `COc1cccc2c1C(=O)c1c(O)c3c(c(O)c1C2=O)C[C@@](O)(C(=O)CO)C[C@@H]3O[C@H]1C[C@H](N)[C@H](O)[C@H](C)O1` [DOXORUBICIN], the IC50 in test [1] stood at 0.038 µM; in test [2], 0.003 µM; in test [3], 0.012 µM.

In the case of `c1c2c(cc3c1OCO3)-c1cc3ccc4c(c3c[n+]1CC2)OCO4` [COPTISINE CHLORIDE], the half-inhibitory concentration (IC50) was 29.1 µM in test [1], > 30 µM in test [2], > 30 µM in test [3] and 24 µM in test [4].

Take `COc1cc2c(cc1OC)C1Cc3ccc(O)c(OC)c3CN1CC2` (stereo not given) [CORYDALMINE]: the IC50 in test [1] was 26.4 µM; in test [2] it was 28.5 µM; in test [3], 27.2 µM; in test [4], > 30 µM.

`COc1ccc(C[C@H]2NCCc3cc4c(cc32)OCO4)c(C(=O)O)c1OC` [CORYTERNATINE C]: the half-inhibitory concentration (IC50) in test [1] is 27.6 µM; in test [2], > 30 µM; in test [3] it was > 30 µM; in test [4], > 30 µM.
